Where two headings read alike, the source gives them in different places.
Tests used:
P-gp = P-gp (Homo sapiens, UniProt P08183); details: 120 min
MATE1 = target: T1, MATE1 (Homo sapiens, UniProt Q96FL8); details: for % control / Background corrected uptake rate: HEK293 cells; for Uptake, MATE1 (Average ± SD): MATE1 HEK293 cells; for Uptake, Control (Average ± SD): control HEK293 cells
T1 sequence (Q96FL8 1-570): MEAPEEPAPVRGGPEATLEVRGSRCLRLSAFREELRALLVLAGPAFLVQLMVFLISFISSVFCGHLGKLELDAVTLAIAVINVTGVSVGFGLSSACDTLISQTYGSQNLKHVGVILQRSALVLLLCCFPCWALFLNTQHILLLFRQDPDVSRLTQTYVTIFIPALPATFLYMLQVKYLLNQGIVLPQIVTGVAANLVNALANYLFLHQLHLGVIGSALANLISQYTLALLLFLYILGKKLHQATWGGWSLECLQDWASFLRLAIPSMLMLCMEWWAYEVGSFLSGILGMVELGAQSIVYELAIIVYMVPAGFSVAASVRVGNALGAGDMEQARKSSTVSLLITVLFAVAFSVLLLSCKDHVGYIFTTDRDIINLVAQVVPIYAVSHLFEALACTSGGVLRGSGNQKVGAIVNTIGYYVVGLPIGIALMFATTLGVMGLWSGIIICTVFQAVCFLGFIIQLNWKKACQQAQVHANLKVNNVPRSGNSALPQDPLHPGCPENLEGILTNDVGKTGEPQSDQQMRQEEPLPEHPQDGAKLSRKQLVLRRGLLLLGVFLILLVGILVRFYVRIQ
Description: (§1) [^14C]-Metformin (1 mM) was provided as a solid and was prepared in Hank's balanced salt solution (HBSS).
(§2) Cells were plated onto standard 24-well tissue culture plates in cell culture medium 1 to 3 days before the experiment. MATE1 and MATE2-K and control cells were incubated with butyric acid (10 mM) for 24 hours before the experiment to inhibit suppression of the transporter.

MATE2-K = MATE2-K (Homo sapiens, UniProt Q86VL8); details: for Uptake, MATE2-K (Average ± SD): MATE2-K HEK293 cells; for Uptake, MATE2-K (Average ± SD) / % control / Background corrected uptake rate / Uptake, Control (Average ± SD): [14C]-Metformin 10 μM; for Uptake, Control (Average ± SD): control HEK293 cells
Sequence of MATE2-K (Q86VL8 1-566 isoform Q86VL8-3): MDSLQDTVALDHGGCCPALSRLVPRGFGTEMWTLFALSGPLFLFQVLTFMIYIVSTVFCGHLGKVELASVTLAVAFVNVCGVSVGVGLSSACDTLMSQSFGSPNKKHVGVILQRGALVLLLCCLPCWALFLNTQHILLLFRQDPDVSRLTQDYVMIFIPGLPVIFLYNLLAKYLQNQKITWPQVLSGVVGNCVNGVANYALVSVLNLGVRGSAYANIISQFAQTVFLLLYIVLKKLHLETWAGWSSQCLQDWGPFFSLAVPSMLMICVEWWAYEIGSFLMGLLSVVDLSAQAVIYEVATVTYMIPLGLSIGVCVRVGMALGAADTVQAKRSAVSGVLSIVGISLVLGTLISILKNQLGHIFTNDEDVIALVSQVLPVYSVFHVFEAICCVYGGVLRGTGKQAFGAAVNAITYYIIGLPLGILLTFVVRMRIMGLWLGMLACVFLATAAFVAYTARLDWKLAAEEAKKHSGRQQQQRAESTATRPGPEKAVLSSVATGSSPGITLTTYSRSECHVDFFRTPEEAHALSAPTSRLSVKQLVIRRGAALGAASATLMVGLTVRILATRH
Description: as §1, §2

OAT2 = target: T2, OAT2 (Homo sapiens, UniProt Q9Y694); assay: OAT2 inhibition: accumulation of [3H]-PGE2 in S2 cells; assay type: in vitro ADME
T2 construct: expressed in transfected cells; host or cells: S2 cells
T2 sequence (Q9Y694 1-548): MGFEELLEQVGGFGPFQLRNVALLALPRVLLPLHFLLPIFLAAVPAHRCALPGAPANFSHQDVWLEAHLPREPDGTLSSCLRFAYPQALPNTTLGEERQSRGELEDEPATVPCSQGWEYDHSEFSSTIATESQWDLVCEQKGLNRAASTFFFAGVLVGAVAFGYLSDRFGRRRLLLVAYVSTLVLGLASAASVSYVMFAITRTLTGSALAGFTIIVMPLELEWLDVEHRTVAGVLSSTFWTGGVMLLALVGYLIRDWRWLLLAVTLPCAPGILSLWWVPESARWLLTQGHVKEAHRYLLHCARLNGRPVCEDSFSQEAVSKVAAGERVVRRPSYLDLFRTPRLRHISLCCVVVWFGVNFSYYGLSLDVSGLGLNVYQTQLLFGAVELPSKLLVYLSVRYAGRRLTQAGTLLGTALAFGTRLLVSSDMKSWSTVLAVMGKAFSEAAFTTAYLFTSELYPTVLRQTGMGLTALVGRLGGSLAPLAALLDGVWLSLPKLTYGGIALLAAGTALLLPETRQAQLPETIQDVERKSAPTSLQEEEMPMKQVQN
Description: Schneider 2 (S2) cells are a commonly used Drosophila melanogaster cell lines from a primary culture of late stage (20-24 hours old) embryos from a macrophage-like lineage. S2 cells are used to express heterologous proteins, to produce proteins on a large scale, and to easily and transiently transfect with several plasmids at once to study protein interactions.
as §1

[1] = cited from earlier work

Sequence of P-gp (P08183 whole entry): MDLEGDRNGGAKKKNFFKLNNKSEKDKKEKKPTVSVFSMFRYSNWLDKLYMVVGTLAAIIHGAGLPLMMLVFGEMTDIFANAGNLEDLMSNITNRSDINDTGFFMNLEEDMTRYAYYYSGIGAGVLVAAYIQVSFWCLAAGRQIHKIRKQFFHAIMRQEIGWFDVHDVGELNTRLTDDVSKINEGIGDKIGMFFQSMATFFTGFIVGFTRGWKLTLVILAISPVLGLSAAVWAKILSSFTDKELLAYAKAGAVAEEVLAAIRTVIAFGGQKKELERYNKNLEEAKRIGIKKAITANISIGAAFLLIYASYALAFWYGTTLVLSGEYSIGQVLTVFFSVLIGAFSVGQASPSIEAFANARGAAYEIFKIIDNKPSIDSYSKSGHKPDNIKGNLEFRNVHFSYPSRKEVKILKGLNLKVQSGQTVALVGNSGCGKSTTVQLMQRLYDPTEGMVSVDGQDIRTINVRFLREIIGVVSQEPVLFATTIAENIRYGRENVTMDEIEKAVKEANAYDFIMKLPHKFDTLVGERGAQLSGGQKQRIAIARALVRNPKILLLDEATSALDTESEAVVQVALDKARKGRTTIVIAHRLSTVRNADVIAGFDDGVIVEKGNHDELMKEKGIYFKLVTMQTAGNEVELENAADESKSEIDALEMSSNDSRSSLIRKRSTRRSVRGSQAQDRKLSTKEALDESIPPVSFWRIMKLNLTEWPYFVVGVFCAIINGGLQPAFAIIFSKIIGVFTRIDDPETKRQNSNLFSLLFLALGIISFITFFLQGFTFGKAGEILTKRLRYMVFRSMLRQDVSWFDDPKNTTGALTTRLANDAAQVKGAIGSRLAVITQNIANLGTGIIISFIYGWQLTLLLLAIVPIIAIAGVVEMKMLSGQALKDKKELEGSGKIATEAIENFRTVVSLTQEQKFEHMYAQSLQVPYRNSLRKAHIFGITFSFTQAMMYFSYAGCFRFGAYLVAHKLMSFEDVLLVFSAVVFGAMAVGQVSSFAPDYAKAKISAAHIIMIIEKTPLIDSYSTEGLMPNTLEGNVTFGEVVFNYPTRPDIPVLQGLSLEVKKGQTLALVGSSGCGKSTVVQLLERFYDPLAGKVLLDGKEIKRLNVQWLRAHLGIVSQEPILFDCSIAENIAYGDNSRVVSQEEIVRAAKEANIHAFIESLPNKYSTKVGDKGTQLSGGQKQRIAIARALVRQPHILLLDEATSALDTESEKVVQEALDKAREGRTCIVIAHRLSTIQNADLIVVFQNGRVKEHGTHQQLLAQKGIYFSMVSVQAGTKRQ

SMILES: NS(=O)(=O)c1cc(Cl)c(Cl)c(S(N)(=O)=O)c1 [Dichlorphenamide, 4,5-dichloro-1,3-benzenedisulfonamide]
- % control (P-gp; 3 μM): 74.0%
- % control (P-gp; 10 μM): 98.2%
- % control (P-gp; 30 μM): 89.8%
- % control (P-gp; 100 μM): 79.2%
- % control (P-gp; 300 μM): 275%
- % control (P-gp; 1000 μM): 127%
- IC50 (MATE1): > 1000 µM
- % control (MATE1; inhibitor 1 μm): 104%
- Background corrected uptake rate (MATE1; inhibitor 1 μm): 85.8 pmol/mg/min
- % control (MATE1; inhibitor 3 μm): 95.2%
- Background corrected uptake rate (MATE1; inhibitor 3 μm): 78.8 pmol/mg/min
- % control (MATE1; inhibitor 10 μm): 96.4%
- Background corrected uptake rate (MATE1; inhibitor 10 μm): 79.8 pmol/mg/min
- % control (MATE1; inhibitor 30 μm): 103%
- Background corrected uptake rate (MATE1; inhibitor 30 μm): 85.0 pmol/mg/min
- % control (MATE1; inhibitor 100 μm): 99.8%
- Background corrected uptake rate (MATE1; inhibitor 100 μm): 82.6 pmol/mg/min
- % control (MATE1; inhibitor 300 μm): 94.7%
- Background corrected uptake rate (MATE1; inhibitor 300 μm): 78.4 pmol/mg/min
- % control (MATE1; inhibitor 1000 μm): 90.3%
- Background corrected uptake rate (MATE1; inhibitor 1000 μm): 74.7 pmol/mg/min
- Uptake, MATE1 (Average ± SD) (MATE1; inhibitor 1 μm): 436 ± 23 pmol/mg protein
- Uptake, MATE1 (Average ± SD) (MATE1; inhibitor 3 μm): 401 ± 7 pmol/mg protein
- Uptake, MATE1 (Average ± SD) (MATE1; inhibitor 10 μm): 406 ± 12 pmol/mg protein
- Uptake, MATE1 (Average ± SD) (MATE1; inhibitor 30 μm): 432 ± 10 pmol/mg protein
- Uptake, MATE1 (Average ± SD) (MATE1; inhibitor 100 μm): 421 ± 17 pmol/mg protein
- Uptake, MATE1 (Average ± SD) (MATE1; inhibitor 300 μm): 398 ± 17 pmol/mg protein
- Uptake, MATE1 (Average ± SD) (MATE1; inhibitor 1000 μm): 379 ± 13 pmol/mg protein
- Uptake, Control (Average ± SD) (MATE1; inhibitor 1 μm): 6.66 ± 1.31 pmol/mg protein
- Uptake, Control (Average ± SD) (MATE1; inhibitor 3 μm): 6.75 ± 1.65 pmol/mg protein
- Uptake, Control (Average ± SD) (MATE1; inhibitor 10 μm): 7.43 ± 1.34 pmol/mg protein
- Uptake, Control (Average ± SD) (MATE1; inhibitor 30 μm): 6.79 ± 0.89 pmol/mg protein
- Uptake, Control (Average ± SD) (MATE1; inhibitor 100 μm): 7.52 ± 0.96 pmol/mg protein
- Uptake, Control (Average ± SD) (MATE1; inhibitor 300 μm): 5.56 ± 0.16 pmol/mg protein
- Uptake, Control (Average ± SD) (MATE1; inhibitor 1000 μm): 5.52 ± 0.21 pmol/mg protein
- IC50 (MATE1; human, pH 8.5): > 1000 µM
- IC50 (MATE2-K): > 1000 µM
- Uptake, MATE2-K (Average ± SD) (MATE2-K; inhibitor 1 μM): 149 ± 29 pmol/mg protein
- Uptake, MATE2-K (Average ± SD) (MATE2-K; inhibitor 3 μM): 159 ± 19 pmol/mg protein
- Uptake, MATE2-K (Average ± SD) (MATE2-K; inhibitor 10 μM): 113 ± 8 pmol/mg protein
- Uptake, MATE2-K (Average ± SD) (MATE2-K; inhibitor 30 μM): 124 ± 36 pmol/mg protein
- Uptake, MATE2-K (Average ± SD) (MATE2-K; inhibitor 100 μM): 137 ± 15 pmol/mg protein
- Uptake, MATE2-K (Average ± SD) (MATE2-K; inhibitor 300 μM): 166 ± 16 pmol/mg protein
- Uptake, MATE2-K (Average ± SD) (MATE2-K; inhibitor 1000 μM): 106 ± 29 pmol/mg protein
- % control (MATE2-K; inhibitor 1 μM): 101%
- Background corrected uptake rate (MATE2-K; inhibitor 1 μM): 28.0 pmol/mg/min
- % control (MATE2-K; inhibitor 3 μM): 108%
- Background corrected uptake rate (MATE2-K; inhibitor 3 μM): 29.9 pmol/mg/min
- % control (MATE2-K; inhibitor 10 μM): 76.1%
- Background corrected uptake rate (MATE2-K; inhibitor 10 μM): 21.0 pmol/mg/min
- % control (MATE2-K; inhibitor 30 μM): 83.7%
- Background corrected uptake rate (MATE2-K; inhibitor 30 μM): 23.1 pmol/mg/min
- % control (MATE2-K; inhibitor 100 μM): 92.4%
- Background corrected uptake rate (MATE2-K; inhibitor 100 μM): 25.5 pmol/mg/min
- % control (MATE2-K; inhibitor 300 μM): 114%
- Background corrected uptake rate (MATE2-K; inhibitor 300 μM): 31.4 pmol/mg/min
- % control (MATE2-K; inhibitor 1000 μM): 73.2%
- Background corrected uptake rate (MATE2-K; inhibitor 1000 μM): 20.2 pmol/mg/min
- Uptake, Control (Average ± SD) (MATE2-K; inhibitor 1 μM): 9.21 ± 0.93 pmol/mg protein
- Uptake, Control (Average ± SD) (MATE2-K; inhibitor 3 μM): 9.44 ± 2.27 pmol/mg protein
- Uptake, Control (Average ± SD) (MATE2-K; inhibitor 10 μM): 8.28 ± 1.46 pmol/mg protein
- Uptake, Control (Average ± SD) (MATE2-K; inhibitor 30 μM): 8.51 ± 1.05 pmol/mg protein
- Uptake, Control (Average ± SD) (MATE2-K; inhibitor 100 μM): 9.21 ± 1.52 pmol/mg protein
- Uptake, Control (Average ± SD) (MATE2-K; inhibitor 300 μM): 8.86 ± 0.93 pmol/mg protein
- Uptake, Control (Average ± SD) (MATE2-K; inhibitor 1000 μM): 5.13 ± 0.40 pmol/mg protein
- IC50 (MATE2-K; human, pH 8.5): > 1000 µM
- IC50 (OAT2): > 1000 µM
- solubility in dilute solutions of sodium carbonate and sodium hydroxide ([1]; dilute solutions of sodium carbonate and sodium hydroxide): soluble
- stability of dilute alkaline solutions ([1]; room temperature): stable
- solubility in water ([1]; water): very slightly soluble

From US20200170975A1 (Strongbridge Dublin Limited, priority 2018, published 2020)
